{"source": "patent US20120277161A1", "about": "“INHIBITION OF MULTIPLE CELL ACTIVATION PATHWAYS” (INTER-K PTY LIMITED, priority 2009, published 2012)", "key": {"[1]": {"system": "ERK1/2 activity in skin fibroblast cells", "test": "Phospho-ERK1/2 upon FCS stimulation, skin fibroblast cells", "type": "cell-based", "conditions": "compared to HT29 cells, data not shown"}, "[2]": {"system": "HT29 human colon cancer cells", "test": "Cell proliferation (MTT) assay, HT29 cells", "type": "cell-based", "conditions": "MTT, 24 hour incubation period", "experimental": "6.1 Cell Proliferation (MTT) Assay Single cell suspensions of viable trypsinised cells were seeded into 96-well tissue culture plates at a density of 2×10^3 cells per well in a volume of 100 μl of a suitable culture media supplemented with heat inactivated foetal calf serum (FCS) (e.g., Dulbecco's Modified Eagles Medium (DMEM), with 10% v/v FCS, 1% L-glutamine, 2% (v/v) Hepes, and antibiotics). A set of triplicate wells was prepared for each concentration of the peptide dendrimer being tested. Additional sample wells containing untreated cells or media alone were set up in each treatment plate and processed in parallel as reference controls. A zero-time plate of untreated cells and media-alone wells was simultaneously prepared and an MTT assay carried out on this plate at the time of addition of the kinase inhibitor (i.e., polypeptide or dendrimer) to treatment plates. All plates were cultured for 24 hours before addition of the test dendrimer.\nTo prepare the MTT solution 100 mg of MTT (3-(4,5-dimethylthiazolyl-2)-2,5-diphenyltetrazolium bromide) (Cat #. M-128, Sigma, St Louis Mo.), is mixed with 20 ml of PBS at pH 7.4. The resulting solution is filter sterilized (0.2 μM syringe filter) and stored at 4° C. protected from light until use. MTT substrate is cleaved in growing cells to yield a water insoluble salt. After solubilisation of the salt crystals, a coloured product is produced the measurement of which allows quantitation of the proliferative activity of the cultured cells.\nAppropriate concentrations of the kinase inhibitor were prepared by dilution of freshly prepared sterile 1 mM stock solutions into cell culture media to give a final well volume of 200 μl containing 10% v/v FCS. The zero-plate was processed by addition of MTT at this time. Cell culture was continued for a further 24 or 48 hours before addition of 20 μl of MTT in PBS (5 mg/ml, 0.2 um filter sterilised). The MTT cell proliferation assay measures cell proliferation rate and, in instances where cell viability is compromised, the assay indicates a comparative reduction in cell viability. After a 3 hour incubation in the presence of MTT (5% CO2 in air at 37° C.), plates were centrifuged at 450 g for 5 minutes, supernatant was removed by gentle suction and precipitated tetrazolium salt resuspended into 150 μl DMSO:glycine (0.1M glycine, 0.1M NaCl pH 10.5) (6:1 v/v) solution. Plates were gently vortexed to complete solubilisation of crystalline material and absorbance was read at 550 nm using a microplate reader. Sample data were processed to determine the comparative growth of treated samples relative to untreated controls.\nHT29 cells were cultured for 48 hours in the presence of selected dendrimers and proliferation of the cells was assessed by MTT assay essentially as described in Example 6.1. The results were calculated as percentage proliferation of control cells (not treated with dendrimer)."}, "[3]": {"system": "ERK1/2 activation in HT29 cells", "test": "Phospho-ERK1/2 ELISA upon serum (FCS) stimulation, HT29 cells", "type": "cell-based, human", "experimental": "HT29 cells were harvested using 0.5% trypsin EDTA (Invitrogen) and 5000 cells in 200 μL media were plated into each well of a clear NUNC tissue culture treated 96 well plate (NUNC). Cells were seeded in DMEM media (Invitrogen) supplemented with 10% (v/v) heat inactivated foetal calf serum (FCS, Invitrogen), 1% (v/v) L-glutamine (Invitrogen) and 2% (v/v) 1M Hepes buffer solution (Invitrogen). Cells were then incubated overnight at 37° C.\nThe following day, the growth medium was replaced with 100 μL of DMEM supplemented with 1% (v/v) L-glutamine and 2% (v/v) 1M HEPES buffer solution (Invitrogen) (serum free medium, SFM) and plates incubated for a further 24 hours at 37° C.\nThe dendrimers were re-constituted in SFM and the desired concentration was added to the plate in 100 μL SFM to make the total volume of each well 200 μL. The control wells (minus peptide) had only SFM added. The assay plate was then incubated at 37° C. for 4 hours. In studies in which cells were subjected to stimulation by serum, 22 μL FCS (10% v/v final concentration) was added to wells for the final 10 minutes at 37° C. SFM only (22 μL) was added to control wells.\nPhospho-ERK levels were evaluated by ELISA utilising an Active Motif FACE ERK1/2 ELISA kit (Australian Biosearch, WA, Australia) as per the manufacturers instructions. Briefly, media was replaced and cells fixed with 4% formaldehyde in PBS, and after a one hour incubation with antibody blocking buffer (supplied), the primary phospho-ERK antibody was added and the plate incubated overnight at 4° C. Antibody dilution buffer only was added to control test wells containing no primary antibody. The following day, HRP-conjugated secondary antibody was added to all wells for one hour before plates were developed and the absorbance measured at 450 nm using a Labsystems Multiskan EX microplate reader (Labsystems, Thermo Labsystems, UK)."}}, "note": "Entries after “also recorded” stand apart in the source; their conditions may differ."}
{"molecule": "CC(C)C[C@H](NC(=O)[C@@H]1CCCN1C(=O)[C@H](CC(N)=O)NC(=O)[C@H](CCCCN)NC(=O)[C@H](C)NC(=O)[C@H](CCCCN)NC(=O)[C@H](CO)NC(=O)[C@@H](N)CCCNC(=N)N)C(=O)N[C@@H](Cc1ccc(O)cc1)C(=O)N[C@@H](CCCNC(=N)N)C(=O)NCCCC[C@H](NC(=O)[C@H](CCCNC(=N)N)NC(=O)[C@H](Cc1ccc(O)cc1)NC(=O)[C@H](CC(C)C)NC(=O)[C@@H]1CCCN1C(=O)[C@H](CC(N)=O)NC(=O)[C@H](CCCCN)NC(=O)[C@H](C)NC(=O)[C@H](CCCCN)NC(=O)[C@H](CO)NC(=O)[C@@H](N)CCCNC(=N)N)C(=O)NCCCC[C@H](NC(=O)[C@H](CCCCNC(=O)[C@H](CCCNC(=N)N)NC(=O)[C@H](Cc1ccc(O)cc1)NC(=O)[C@H](CC(C)C)NC(=O)[C@@H]1CCCN1C(=O)[C@H](CC(N)=O)NC(=O)[C@H](CCCCN)NC(=O)[C@H](C)NC(=O)[C@H](CCCCN)NC(=O)[C@H](CO)NC(=O)[C@@H](N)CCCNC(=N)N)NC(=O)[C@H](CCCNC(=N)N)NC(=O)[C@H](Cc1ccc(O)cc1)NC(=O)[C@H](CC(C)C)NC(=O)[C@@H]1CCCN1C(=O)[C@H](CC(N)=O)NC(=O)[C@H](CCCCN)NC(=O)[C@H](C)NC(=O)[C@H](CCCCN)NC(=O)[C@H](CO)NC(=O)[C@@H](N)CCCNC(=N)N)C(=O)NCCCC[C@H](NC(=O)[C@H](CCCCNC(=O)[C@H](CCCCNC(=O)[C@H](CCCNC(=N)N)NC(=O)[C@H](Cc1ccc(O)cc1)NC(=O)[C@H](CC(C)C)NC(=O)[C@@H]1CCCN1C(=O)[C@H](CC(N)=O)NC(=O)[C@H](CCCCN)NC(=O)[C@H](C)NC(=O)[C@H](CCCCN)NC(=O)[C@H](CO)NC(=O)[C@@H](N)CCCNC(=N)N)NC(=O)[C@H](CCCNC(=N)N)NC(=O)[C@H](Cc1ccc(O)cc1)NC(=O)[C@H](CC(C)C)NC(=O)[C@@H]1CCCN1C(=O)[C@H](CC(N)=O)NC(=O)[C@H](CCCCN)NC(=O)[C@H](C)NC(=O)[C@H](CCCCN)NC(=O)[C@H](CO)NC(=O)[C@@H](N)CCCNC(=N)N)NC(=O)[C@H](CCCCNC(=O)[C@H](CCCNC(=N)N)NC(=O)[C@H](Cc1ccc(O)cc1)NC(=O)[C@H](CC(C)C)NC(=O)[C@@H]1CCCN1C(=O)[C@H](CC(N)=O)NC(=O)[C@H](CCCCN)NC(=O)[C@H](C)NC(=O)[C@H](CCCCN)NC(=O)[C@H](CO)NC(=O)[C@@H](N)CCCNC(=N)N)NC(=O)[C@H](CCCNC(=N)N)NC(=O)[C@H](Cc1ccc(O)cc1)NC(=O)[C@H](CC(C)C)NC(=O)[C@@H]1CCCN1C(=O)[C@H](CC(N)=O)NC(=O)[C@H](CCCCN)NC(=O)[C@H](C)NC(=O)[C@H](CCCCN)NC(=O)[C@H](CO)NC(=O)[C@@H](N)CCCNC(=N)N)C(=O)NCCC(N)=O", "note": "[Dend 8-10(4)]", "values": [{"measurement": "inhibition of ERK1/2 activity upon FCS stimulation, skin fibroblast cells", "setting": "[1]", "result": "much less inhibition"}, {"measurement": "inhibition of proliferation of HT29 colon cancer cells", "setting": "[2]", "result": "substantially more effective at inhibiting cell growth/proliferation"}, {"measurement": "greater inhibition of activated phospho-ERK 1/2 than the closest test agent (TAT-G RSKAKNPLYR)", "setting": "[3]; 5 μM, 1 hour, FCS stimulated HT29 cells", "result": "at least 30%"}, {"measurement": "inhibition of activated phospho-ERK1/2", "setting": "[3]; 5 μM, 4 hours, HT29 cells, data not shown", "result": "approx. 95%"}, {"measurement": "ERK1/2 activation (phospho-ERK1/2 levels) upon serum (FCS) stimulation, HT29 cells", "setting": "[3]; exposure to dendrimer for 4 hours prior to FCS", "result": "abolished ERK1/2 activation in a dose-dependent manner; also recorded: significantly reduced"}]}
